Patent US11632953B2, “Method for controlling hematophagous or sap-feeding arthropods” (Board of Supervisors of Louisiana State University and …, priority 2016, dated 2023)
Entries after “also recorded” stand apart in the source; their conditions may differ.

Assays:
[1] = tested on: isolated tick salivary gland; test: fluid secretion (salivation) in the isolated tick salivary gland, modified Ramsay assay; parameters: species or system Amblyomma americanum; conditions: isolated tick salivary gland
Aphis gossypii = test: aphid feeding on treated cotton leaves, electrophenegraph technique; type: in vivo; conditions: barium chloride at 300 micromolar
Description: FIGS. 14(A) and (B) depict measurements of aphid (Aphis gossypi) feeding on cotton leaves, as measured through the electrophenegraph technique; on control leaves and on leaves treated with the Kir inhibitor barium, respectively.
In aphids, a specific Kir channel blocker (barium chloride at 300 micromolar) was coated onto leaf tissue, and the feeding behavior of the adult aphid was analyzed through the classical electrophenegraph technique.

[2] = tested on: isolated tick salivary gland; test: ion secretion in saliva of the isolated tick salivary gland; parameters: species or system Amblyomma americanum
AnKir1 = AnKir1 (Anopheles gambiae, UniProt A0A075M2J8); test: whole-cell patch clamp electrophysiology; type: cell-based
AnKir1, sequence (A0A075M2J8 1-555): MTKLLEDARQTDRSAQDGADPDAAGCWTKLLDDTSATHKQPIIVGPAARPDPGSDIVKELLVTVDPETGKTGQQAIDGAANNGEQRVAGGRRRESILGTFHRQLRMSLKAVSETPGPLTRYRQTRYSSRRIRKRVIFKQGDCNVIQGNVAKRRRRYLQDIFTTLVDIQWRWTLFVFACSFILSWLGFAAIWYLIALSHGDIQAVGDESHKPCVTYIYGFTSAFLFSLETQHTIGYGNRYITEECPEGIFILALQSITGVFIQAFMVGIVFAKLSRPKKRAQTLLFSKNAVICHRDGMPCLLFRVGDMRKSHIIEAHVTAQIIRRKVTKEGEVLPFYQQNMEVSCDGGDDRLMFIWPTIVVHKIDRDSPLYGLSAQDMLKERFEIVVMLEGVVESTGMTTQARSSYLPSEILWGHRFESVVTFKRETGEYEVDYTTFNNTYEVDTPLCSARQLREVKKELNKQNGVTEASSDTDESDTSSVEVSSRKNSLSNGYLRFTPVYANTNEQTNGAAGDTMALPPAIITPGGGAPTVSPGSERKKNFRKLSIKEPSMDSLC
Description: Patch electrodes were pulled from silanized 1.5 mm outer diameter borosilicate microhematocrit tubes using a P-1000 Flaming/Brown micropipette puller (Sutter Instrument, Novato Calif., USA). Electrode resistance ranged from 2-4 MΩ. Whole-cell currents were recorded under voltage-clamp conditions using an Axopatch 200B amplifier (Molecular Devices, Sunnyvale, Calif.). Electrical connections to the amplifier used Ag/AgCl wires and 3 M KCl/agar bridges. Electrophysiological data were collected at 5 kHz and filtered at 1 kHz. Data acquisition and analysis were performed using pClamp 9.2 software (Axon Instruments).
Transiently transfected HEK-293T cells expressing AnKir1 were voltage-clamped in the whole-cell configuration of the patch clamp technique. The extracellular bath solution contained (in mM): 135 NaCl, 5 KCl, 2 CaCl2), 1 MgCl2, 5 glucose, 10 HEPES free acid, pH 7.4, 290 mOsm/kg H2O. The pipette solution contained (in mM): 135 KCl, 2 MgCl2, 1 EGTA, 10 HEPES free acid, 2 Na2ATP (Roche, Indianapolis, Ind.), pH 7.3, 275 mOsm. Cells were voltage clamped at −75 mV, stepped to −120 mV for 200 msec, and then ramped to 120 mV at a rate of 2.4 mV/msec. Concentration-response curves (CRCs) were constructed by measuring the effects of increasing doses of inhibitors on AnKir1 currents at −120 mV. All recordings were made at room temperature (20-23° C.).

Drosophila melanogaster = test: whole plant or invertebrate; conditions: for mortality in CAFE assay: 200 μM VU041, 700 μM VU937; for reduction of total volume of sucrose solution ingested: 100 μM fluphenazine, 200 μM VU041
Description: A capillary feeding assay (CAFE) was used to quantify the volume of sucrose solution consumed over a period of time; it was performed essentially as described in W. W. Ja, G. B. Carvalho, E. M. Mak, N. N. de la Rosa, A. Y. Fang, J. C. Liong, T. Brummel, S. Benzer, Prandiology of Drosophila and the CAFE assay. Proceedings of the National Academy of Sciences of the United States of America 104, 8253-8256 (2007); published online EpubMay 15 (10.1073/pnas.0702726104). […] One adult fly was placed into a 2 mL glass vial with a screw lid that was pierced with a glass microcapillary tube having a truncated 200-0 pipette tip. The microcapillary tubes contained 5% (wt/vol) sucrose solution with a 5 μl mineral oil overlay to minimize evaporation. […] Concentrations of 100 μM dopamine and 100 μM fluphenazine were used to determine the influence of those agents on fly feeding. […] All dead flies were excluded from all time points of the study regardless of the time of death. Mean (n>25) values are shown in all figure panels, depicting total consumption.
Times spent feeding in Kir1 and GFP genetic knockdown studies were compared to control values for each day using one-way ANOVA with a Dunns multiple comparisons post-test. Statistical significance for all studies was P<0.05.

Ae. aegypti [3] = test: in vivo diuresis assay; parameters: species or system Aedes aegypti; conditions: topical, 1.7 μg/mg mosquito
Description: The K^+-PBS contained the following (in mM): 92.2 NaCl, 47.5 KCl, 10 Na2HPO4, and 2 KH2PO4 (pH 7.5). Each treatment group of 5 mosquitoes was transferred into a separate graduated, packed-cell volume tube (MidSci, St. Louis, Mo.) and held for 1 h at 28° C. The volume excreted by the mosquitoes was measured visually via the graduated column at the bottom of the tube. At least 8 replicates (5 mosquitoes per replicate) were performed for each treatment.

Ae. aegypti [4] = test: mosquito fecundity, eggs laid; type: in vivo, Aedes aegypti; conditions: 72 h post blood feeding; 3.4 μg/mg mosquito
Description: The mosquitoes were returned to rearing conditions for 24 h, after which they were transferred to individual egg-laying glass tubes 21 mm×70 mm (Fisher Scientific, Pittsburgh, Pa.) with a piece of coffee filter ([…] USA, Clearwater, Fla.) cut to fit the bottom of the tube. The filter was wetted with 150 μl of dH2O, and the open end of the tube was plugged with a cotton ball. The mosquitoes in their individual egg laying tubes were returned to rearing conditions for an additional 48 h, and the number of eggs laid was counted. Any mosquitoes that died during the 72 h period after blood feeding were excluded from the analysis.

[5] = tested on: honey bees (Apis mellifera); test: acute topical toxicity in adult honey bees; type: in vivo; conditions: 48 h, VU041 1 mg/bee (~10 μg/mg), bifenthrin 0.1 μg/bee
Description: Frames of late-stage honeybee (A. mellifera) pupae were taken from four colonies at The Ohio State University Honey Bee Lab in Wooster, Ohio, and maintained in a dark humid incubator at 34° C. (Darwin Chambers Co., St. Louis, Mo., model H024) until adult bees emerged. New adults were brushed from frames daily, placed in wooden screen cages (21×14×12 cm), and provided with 1:1 (w/w) sucrose in water.
Acute toxicity experiments in adult bees were performed as follows: Twenty-four hours after emergence, adult honey bees in cages were anaesthetized with carbon dioxide, divided into groups of approximately 20 bees each, and placed in plastic-coated paper cups (177 cm^3; UNIQ Paper Yogurt Cup, Frozen Dessert Supplies, Gilbert, Ariz.) covered with cotton cheesecloth. […] As a positive control, some bees were treated with 3 μl of bifenthrin (0.1 μg/μl). Negative control bees were treated with 3 μl of solvent. Applications were made using a 20 μl micropipette (Fisherbrand Finnpipette F2, Fisher Scientific, Pittsburgh, Pa.) with a disposable plastic tip. […] Toxicity to honey bees was recorded at 48 h, rather than the 24 h used for mosquitoes, to allow for the possibility of delayed toxicity due to the larger body size of the bee. Bees showing no movement 48 h after treatment were scored as dead.

[6] = whole-cell patch clamp, HEK-293T cells

## O=C(Cn1nc(C(F)(F)F)c2c1CCCC2)N1CCCc2ccccc21 [VU041, 1-(3,4-dihydroquinolin-1(2H)-yl)-2-(3-(trifluoromethyl)-4,5,6,7-tetrahydro-1H-indazol-1-yl)ethan-1-one]
[1]
  reduction of salivary output / saliva secretion compared to control: approximately 60%
Aphis gossypii
  feeding phases (egestion, salivation, ingestion): No salivation was observed; also recorded: essentially completely inhibited egestion, salivation, and ingestion
[2]
  K+ and Na+ ion secretion rates in salivary droplets: significantly reduced
AnKir1; whole-cell patch clamp
  Hill coefficient value: 1.3
AnKir1; [6]
  IC50: 0.496 µM
Drosophila melanogaster
  mortality in CAFE assay: approximately 30%
Drosophila melanogaster; 1 day PE
  reduction of total volume of sucrose solution ingested: 2.6 fold
Drosophila melanogaster; 2 days PE
  reduction of total volume of sucrose solution ingested: 2.7 fold
Drosophila melanogaster; 3 days PE
  reduction of total volume of sucrose solution ingested: 2.9 fold
Drosophila melanogaster; 4 days PE
  reduction of total volume of sucrose solution ingested: 3.2 fold
Drosophila melanogaster; Drosophila melanogaster, 96 h, read-out: EC50 of reduction of sucrose consumption
  EC50: 68 µM
Drosophila melanogaster; concentration-dependent
  maximal reduction of volume of sucrose consumption: up to 3.2 fold
Ae. aegypti [3]
  lowering of diuretic capacity compared to controls: ~51%
Ae. aegypti [4]
  median number of eggs laid per mosquito: significantly lower median number of eggs per mosquito
[5]
  mortality of adult honey bees: did not cause significant mortality; also recorded: not toxic

## O=C(Cn1nc(C(F)(F)F)c2c1CCCC2)NC1CCC1 [VU937]
Aphis gossypii
  feeding phases (egestion, salivation, ingestion): fed normally; also recorded: did not affect feeding
AnKir1; patch clamp
  activity less than VU041: 60 fold
AnKir1; whole-cell patch clamp
  IC50: 29.7 µM
AnKir1; [6]
  IC50: 29.7 µM
Drosophila melanogaster
  mortality in CAFE assay: less than 10%
